Assay results reported in patent publication EP1529533A1, “Use of GH secretagogues in hypoxic-ischemic brain injury” (Sahltech I Göteborg AB, priority 2003, dated 2005).
Where a SMILES comes first, the peptide text is derived from it. [ ]: non-standard residue; d: D form. dTrp(2-Me) = Cc1[nH]c2ccccc2c1C[C@@H](N)C(=O)O

Assay: Body temperature, mortality and body weight in the hypoxia-ischemia study
Assay type: in vivo, rats
Details: between the two groups (hexarelin vs. vehicle); data not shown
Text: In a neonatal model that has previously been described (Rice J. E., V. R. C. Brierley, Ann. Neurol. 9 (1981), 1126-35; Hagberg H. et al., Acta Paedeatr. Suppl 442 (1997), 85-88). Seven-day-old out bred Wistar Fue rats were anesthetised with enflurane (3,5% for induction and 1,5% for maintenance) in a mixture of nitrous oxide and oxygen on a snout mask. The left common carotid artery was cut between two prolene sutures (9-0). After anesthesia and surgery the animals were returned to there dams and allowed to recover for 60 minutes. They were thereafter exposed to 60 minutes of hypoxia in a humidified chamber at 36°C with 7.7±0.01% oxygen in nitrogen. The pups were returned to and kept with their dams until they were killed at different time points after the insult Animals were either perfused intracardially with saline and 5% buffered formaldehyde (Histofix; Histolab, Göteborg, Sweden) for preparation of paraffin sections or fresh tissue were immediately frozen in isopenthane on dry ice for preparation of protein homogenates. The animal ethics committee in Gothenburg approved the animal studies.
Animals received daily intracerebral injections of 5 µl solution containing either 5µg hexarelin or vehicle (NaCl 0.9 mg/ml). Injections were headed for the left ventricular at 1.5 mm lateral to the Sagittal suture, 5.7 mm rostral to lambda and 2.8 mm deep to the skull surface with a special made needle of 27 gauge. Injection velocity of 1.5 µl/min with a Hamilton syringe connected to a MCA pump.
Brain injury was evaluated and observer blinded between the study groups using a neuropathological scoring system where injury in cortex was graded from 0-4 with 0 being no observable injury and 4 being confluent infarction encompassing most of the hemisphere. The damage in the hippocampus, thalamus and striatum was assessed regarding both hypothrophy (shrinkage of cells) 0-3 and observable cell injury/infarction 0-3, resulting in a scoring for each region 0-6. The total score 0-22 was the sum score for all the four regions.

Cc1[nH]c2ccccc2c1C[C@@H](NC(=O)[C@@H](N)Cc1cnc[nH]1)C(=O)N[C@@H](C)C(=O)N[C@@H](Cc1c[nH]c2ccccc12)C(=O)N[C@H](Cc1ccccc1)C(=O)N[C@@H](CCCCN)C(N)=O [Hexarelin] (H-H[dTrp(2-Me)]AW[dF]K-NH2)
no differences: body temperature | body weight | mortality
